Here are results for one molecule from US10912819B2, “Neuroprotective peptides derived from activity-dependent neuroprotective protein for treatment of neurological diseases” (priority 2016, dated 2021).

Assay [1] concerns Adnp^+/− mice. The assay can be described thus: Object recognition test. The assay is classed as in vivo. The procedure: Data are expressed as mean (±SEM) total time (sec) spent exploring all objects designated by relative discrimination index (a and b-exploration of familiar and novel object, respectively) in Phase 2 (A) and Phase 3 (B). Two identical objects were presented during Phase 1 (habituation), and one of the identical objects was replaced by a novel object during Phases 2 and 3. […] (C) 2-month-old mice (n=3-4 males or 6-8 females per experimental group) were treated daily, five times a week for 6 weeks with 0.5 μg NAP/mouse/day by intranasal administration in DD=7.5 mg/ml of NaCl, 1.7 mg/ml of citric acid monohydrate, 3 mg/ml of disodium phosphate dihydrate, and 0.2 mg/ml of 50% benzalkonium chloride solution. Animal performance in the object recognition test after four week treatment is shown. Data are expressed as mean (±SEM) as above, in the long retention choice phase (24 hours after habituation).
Experiments performed as we described in Malishkevich et al., 2015 (37) and Amram et al., Mol Psychiatry. 2016 October; 21(10):1467-76 (7). 3-6 month-old male mice were used, drug application (0.5 μg/5 μl/mouse) was once daily, for one month and then behavioral assays were initiated together with drug application. In experiments with the vehicle termed DD (NAP-benzalkonium), drug application was at 2 months of age and continued as above. Open field experiments (16, 17) and elevated plus maze evaluations (18) were carried out as before.
Animal performance in the object recognition memory test is shown. Two identical objects were presented during the habituation phase, and one of the identical objects was replaced by a novel object during the short retention choice phase (3 hours) and the long retention choice phase (24 hours).

Assay [2] has as its system microtubule end binding protein 1 and 3 (EB1 and EB3) comets in living N1E-115. Description: Live imaging of EB1/EB3 comets in N1E-115 cells carrying ADNP mutations. The assay is classed as cell-based. The conditions noted are these: p.Tyr719*/p.Lys404Valfs*31 ADNP, 4 hours NAP treatment (10^−12M). From the text: FIG. 10: NAP ameliorates cytoskeletal deficiencies associated with ADNP mutations. Human ADNP mutated cDNA was cloned into plasmids as described (Ivashko-Pachima et al., Molecular Psychiatry 2017, in press). The mutations cloned included the p.Tyr719* ADNP, the most common ADNP mutation (Gozes et al., Frontiers in Endocrinology, under revisions) and the p.Lys408Valfs31*, the first de novo ADNP mutation identified (reviewed in Gozes et al., J Mol Neurosci (2015) 56:751-757.
The effects of ADNP carried p.Tyr719*/p.Lys404Valfs*31 mutation on microtubule end binding protein 1 and 3 (EB1 and EB3) comets in living N1E-115 is shown. For experimental details see, Ivashko-Pachima et al., Molecular Psychiatry 2017, in press. (A) Live imaging of N1E-115 cells. EB1-RFP (red) co-transfected with full ADNP/p.Tyr719*/p.Lys404Valfs*31 carrying plasmids before and after 4 hours NAP treatment (10^−12M) (panel A1). […] (B-C) EB1 Quantification of average track length, comet speed, comet length and number of comets/100 μm^2 (total number of comets: ADNP (full) before treatment n=2639/1 I cells, ADNP (full) after NAP treatment n=3107/15cells, ADNP p.Tyr719* before treatment n=1910/14cells, ADNP p.Tyr719* after NAP treatment n=3990/16cells, ADNP p.Lys404Valfs*31 before treatment n=1082/6cells, ADNP p.Lys404Valfs*31 after NAP treatment n=694/5cells). […]

Assay [3] deals with Adnp^+/− mice. The assay can be described thus: Hanging wire test. The assay is classed as in vivo. From the text: The hanging wire test measures the strength of the mouse paws by using the latency to fall off from an inverted cage lid (placed 50 cm above the surface) onto a soft bedding (maximum time 120 sec). Data are expressed as mean±SEM.
Assay [4] concerns Chl1. Description: Hippocampal Chl1 mRNA expression, quantitative real-time PCR. The assay is classed as in vivo. To be noted: 7.5-month-old mice treated with NAP/CB, FIG. 8F. The procedure: In females, NAP regulates genes deregulated with ADNP mutation in the hippocampus. […] Sexual dichotomy determined by t-test analysis was also observed for Akap6 and Chl1 expression between Adnp^+/− males and females (#p<0.05, ##p<0.01, ###p<0.001).
Quantitative reverse transcription real time polymerase chain reaction (RT-PCR) was performed as before (18, 37).
On the technique in general: Real-time PCR tracks product formation cycle by cycle.

Assay [5] concerns Adnp^+/− mouse pups. The assay can be described thus: Ultrasonic vocalization (USV) of pups after dam separation. The assay is classed as in vivo, mice. The protocol: Furthermore, Auditory brain response (ABR) of 2.5 months old mice presents prolonged latency of hearing in Adnp+/− vs. Adnp+/+ females. (A) Results are presented as means±SEM. Ultrasonic vocalizations (USVs) were recorded in eight-day-old pups, subjected to daily subcutaneous injections of NAP (25 μg/ml saline) or saline (20 μl and 40 μl on postnatal days 1-4 and 5-7). The recordings were performed following dam separation according to published literature (Shu, W., et al. 2005. Proc Nati Acad Sci USA 102:9643-9648) NAP was injected as described before (Rotstein, M., et al., 2006. J Pharmacol Exp Ther 319:332-339).
Language and speech deficits affect ADNP-mutated children (38, 39) and autistic children in general (51). In rodents, both speech and social communication are tested by analysis of isolation induced ultrasonic vocalizations (USVs) (52). As part of USV test, 25 μg of NAP were diluted in 1 ml saline and injected (subcutaneous) to Adnp^+/− mouse pups for 9 subsequent days (1-9 days of age) in doses of 20, 40 μl on days 1-4, 5-7 respectively (50).

[6] abbreviates: 5-month-old mice, 0.5 μg NAP/mouse/day intranasal in CB, 3 weeks, p<0.05.

Entries after “also recorded” stand apart in the source; their conditions may differ.

As for `CC[C@H](C)[C@H](NC(=O)[C@H](CO)NC(=O)[C@@H](NC(=O)[C@@H]1CCCN1C(=O)[C@H](C)NC(=O)[C@@H](N)CC(N)=O)C(C)C)C(=O)N1CCC[C@H]1C(=O)N[C@@H](CCC(N)=O)C(=O)O` [NAP], the “relative discrimination index, long retention choice phase, females” value in assay [1] (2-month-old mice, 0.5 μg NAP/mouse/day intranasal in DD, after four week treatment, p<0.05) is “normalizing the deficient female behavior”. For the same molecule, the “relative discrimination index, long retention choice phase, males” value in assay [1] (2-month-old mice, 0.5 μg NAP/mouse/day intranasal in DD, n=3-4) is recorded as “only a trend”. The “relative discrimination index, short retention phase” value in assay [1] (2-month-old mice, NAP intranasal in DD) is on record as “No differences were observed”. Besides, the “relative discrimination index novel vs familiar object, short retention choice phase” value in assay [1] (3 hours after habituation, male mice 6-9 months, NAP in CB intranasal, NAP-treated vs Adnp^+/− p<0.001) was “Significant differences”. Moreover, the “relative discrimination index novel vs familiar object, long retention choice phase” value in assay [1] (24 hours after habituation, male mice 6-9 months, NAP in CB intranasal, NAP-treated vs Adnp^+/− p<0.001) is given as “Significant differences”. Moreover, the “changes in microtubule dynamics (EB1/EB3 comets) caused by ADNP mutations” value in assay [2] is given as “ameliorated, in part”. In addition, the “latency to fall, males” value in assay [3] (2-month-old mice, 0.5 μg NAP/mouse/day intranasal in DD, 5 weeks, p<0.01) is recorded as “improved”. In addition, in assay [3] (setting [6]), the “latency to fall, females” value is given as “significant difference” and the “latency to fall, males” value is given as “significant difference”. For the same molecule, in assay [4], the “hippocampal Chl1 expression” value is on record as “also regulated by NAP”. Moreover, the “USV per minute, male and female groups combined” value in assay [5] (Adnp^+/− pups, NAP daily injections, FIG. 9C) is “protected against this deficiency; also recorded: most significant increase”. For the same molecule, the “USV per minute by sex” value in assay [5] (Adnp^+/− pups, NAP vs saline treated littermates, increased group size, FIG. 9B) is listed as “normalizing it in females; also recorded: increased vocalization in both sexes”. Also, the “number of USVs produced in a minute, Adnp^+/− pups” value in assay [5] (eight-day-old pups, daily subcutaneous NAP (25 μg/ml saline) vs saline, p=0.005) is “significant increase; also recorded: amelioration”. Besides, the “number of USVs produced in a minute, Adnp^+/+ pups” value in assay [5] (eight-day-old pups, daily subcutaneous NAP vs saline, p=0.73) is “no significant treatment effect”.
